According to patent US12577231B2, “Androgen receptor PROTACS” (GlaxoSmithKline Intellectual Property Development Limited, priority 2023, dated 2026):

Legend:
[1] = test system: Androgen Receptor in human prostate cancer cell lines; test: Androgen Receptor Degradation-Imaging Assay, all prostate cancer cell lines (FIG. 2); assay type: cell-based; conditions: 16 hours treatment
Protocol: Degradation of Androgen Receptor (AR) protein in human prostate cancer cell lines (MDA-PCa-2b (AR T878A/L702H), LNCaP (AR T878A), VCaP (AR wild type and amplified) 22RV1 (AR H875Y) and PC3 (AR negative control)) treated with AR PROTACs was quantified using immunofluorescence. Prostate cancer cells were plated (MDA-PCa-2b, and VCaP 16,000 cells/well; LNCaP and 22RV1 32,000 cells/well, and PC3 8,000 cells/well) in an optical bottom 96-well cell culture plate and allowed to attach overnight. The prostate cancer cell lines were treated for 16 hours with a 10-point 3-fold dilution series (dose range=0.02 nM to 333 nM). PC3 is included as an AR negative control and not treated with compound. […] Following washes with IF buffer, cells were incubated with fluorescent secondary antibody (Goat anti-rabbit Alexa 647; commercially available from Invitrogen) and Hoechst nuclear stain (commercially available from Themo Scientific) prior to quantification of nuclear AR levels via Opera Phenix high-content fluorescent imager using a 40× water objective. […]
The averaged nuclear Alexa 647 median fluorescence intensity (MFI) of PC3 cells is subtracted from the nuclear Alexa 647 MFI of PROTAC treated and DMSO control treated cells. % AR remaining is calculated for PROTAC treatments as a percent of the DMSO control (MFI PROTAC treated/MFI DMSO control treated)*100). […]

Androgen receptor W742C = biological target: T1, Androgen receptor W742C (Homo sapiens, UniProt P10275, W742C); test: Degradation of overexpressed Androgen Receptor in A549 cells (HiBiT), W742C; assay type: cell-based; conditions: A549 cells overexpressing AR W742C, cycloheximide, 24 hours
T1 construct: expressed in transfected cells; host or cells: A549, transduced, puromycin selected
T1 sequence (P10275 1-920 W742C): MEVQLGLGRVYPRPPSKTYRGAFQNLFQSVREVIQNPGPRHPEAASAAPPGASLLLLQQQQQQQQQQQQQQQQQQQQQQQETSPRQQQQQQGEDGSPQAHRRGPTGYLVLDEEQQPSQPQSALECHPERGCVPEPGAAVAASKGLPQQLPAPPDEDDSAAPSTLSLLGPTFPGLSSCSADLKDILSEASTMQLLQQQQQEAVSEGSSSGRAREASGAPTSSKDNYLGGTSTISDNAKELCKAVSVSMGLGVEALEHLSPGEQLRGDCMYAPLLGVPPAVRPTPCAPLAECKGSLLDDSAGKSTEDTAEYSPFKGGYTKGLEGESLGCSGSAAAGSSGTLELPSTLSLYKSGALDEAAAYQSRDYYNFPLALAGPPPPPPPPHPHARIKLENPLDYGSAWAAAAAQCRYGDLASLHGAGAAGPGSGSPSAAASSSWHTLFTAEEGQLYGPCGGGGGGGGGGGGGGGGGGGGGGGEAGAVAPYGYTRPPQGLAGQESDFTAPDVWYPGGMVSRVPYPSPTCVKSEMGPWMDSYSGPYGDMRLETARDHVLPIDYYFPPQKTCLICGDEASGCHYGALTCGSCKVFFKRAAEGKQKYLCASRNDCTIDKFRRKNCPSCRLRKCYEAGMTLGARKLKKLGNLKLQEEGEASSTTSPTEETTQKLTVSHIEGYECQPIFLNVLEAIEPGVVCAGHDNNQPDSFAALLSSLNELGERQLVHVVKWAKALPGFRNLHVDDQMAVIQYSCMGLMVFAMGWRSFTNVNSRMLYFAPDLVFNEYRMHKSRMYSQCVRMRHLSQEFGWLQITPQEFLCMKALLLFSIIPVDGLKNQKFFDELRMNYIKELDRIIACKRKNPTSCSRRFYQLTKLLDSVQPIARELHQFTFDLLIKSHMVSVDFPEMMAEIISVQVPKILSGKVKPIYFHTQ
Protocol: A549 cells were transduced to express wild type androgen receptor and Androgen receptor containing the following mutations (L702H, H875Y W742C W742L F877L, T878A and T878A/H875Y) with HiBiT tags. Transduced cells following puromycin selection were maintained in a humidified incubator (at 37° C. and 5% CO2 in the DMEM medium supplemented with 1% (v/v) Pen/Strep, 1% (v/v) Glutamax and 10% (v/v) FBS. A549 cells expressing each AR construct were detached from plate and counted. Cell suspensions at density 0.2 million per mL were prepared. Cell suspension was supplemented with 100 μg/mL of cycloheximide to block protein synthesis. Cells were preincubated with cycloheximide for 1 hr before seeding. Cells were seeded onto 384-well plate at density of 5,000 in 25 μL per well. A two fold serial dilution of test compounds, starting from 1 μM (row A) in 2-fold serial dilution series across the column using Tecan D300e dispenser. […]
Nano-Glo HiBiT Lytic reagent was prepared by adding LgBiT protein and Nano-Glo® substrate to lytic buffer pre-equilibrated at room temperature following manufacturer protocol (https://www.promega.co.uk/resources/protocols/technical-manuals/101/nanoglo-luciferase-assay-system-protocol). […] The plates were then centrifuged (100×G, 1 min) and incubated on shaker for 10 mins before taking readings on Pherastar Luminescence microplate reader. […]

Summary pXC50 (Androgen receptor W742C): 8.57
SMILES: COc1cc(O[C@H]2C(C)(C)[C@H](NC(=O)c3ccc(N4CCC(CN5CCC(n6ncc7c(N8CCC(=O)NC8=O)nccc76)CC5)CC4)c(F)c3)C2(C)C)ccc1C#N [Example 20, N-((1r,3r)-3-(4-Cyano-3-methoxyphenoxy)-2,2,4,4-tetramethylcyclobutyl)-4-(4-((4-(4-(2,4-dioxotetrahydropyrimidin-1(2H)-yl)-1H-pyrazolo[4,3-c]pyridin-1-yl)piperidin-1-yl)methyl)piperidin-1-yl)-3-fluorobenzamide]
percentage of Androgen Receptor remaining versus concentration (FIG. 2) [1]: Good reductions
